Results taken from US10179913B2, “MicroRNA-328 anti-sense composition and therapeutic use” (KAOHSIUNG MEDICAL UNIVERSITY, priority 2015, dated 2019).
Marks after values point to notes of the source that are not given here.

Experiments:
[1] = system: myopia-induced C57BL/6J mice; test: Example 6: confirmation of DNA 16mer by a CRO in myopia-induced mice; format: in vivo; conditions: for left eye axial, mm Mean: left eye uncovered
Description: The procedure of myopia induction is: The 21 days old C57BL/6J mice were purchased from the National Laboratory Animal Center, Taiwan. All animal experiments were in compliance with the ARVO Statement for the Use of Animals in Ophthalmic and Vision Research. The procedure of myopia induction is described briefly as the following: Right eyes of the 23 days old mice were covered for 4 weeks to induce myopia and the left eyes were uncovered. Then the right eyes of the myopia-induced mice were treated with […], of saline (i.e. negative control group), 1% atropine (i.e. positive control group), 10 nM, 100 nM, and 1 μM of DNA 16mer on 30th, 37th and 44th day. Mice were sacrificed on 51th day and the eyes were collected. The isolated eyes were photographed under a dissection microscope and the axial lengths were measured using imageJ and a proprietary software for automatic measure. Myopia (nearsightedness) causes elongation of axial length, which is the major pathological change in myopia. The difference of axial length (i.e. delta axial length) between the covered right eye and the non-covered left eye of the same mouse indicates the severity of myopia.

miR-328 = test: In vitro inhibition of miR-328 expression by antisense oligonucleotides transfected into ARPE-19 RPE cells (qRT-PCR, normalized to U6); format: cell-based, human; conditions: for inhibitory effect on miR-328 expression: RPE cells (ARPE-19), Lipofectamine 2000 transfection, 24 hours; for inhibition of miR-328 expression in vitro (in words): RPE cells, 30, 50 and 100 nM
Procedure: Cell Culture, Treatments, and Transfection
An RPE cell line called “ARPE-19” was grown in Dulbecco's modified Eagle's medium (DMEM)/F12 medium. The cell line was grown with 1% penicillin/streptomycin and 10% heat-inactivated fetal bovine serum (FBS) at 37° C. in a humidified atmosphere of 95% air/[…] carbon dioxide (CO2). To conduct the transfection experiments, cells were seeded into a 12-well plate at a density of 1×10^5 cells/well. After achieving 70% confluence in a well, antisense oligonucleotides (concentrations of 30, 50 and 100 nM) were transfected with Lipofectamine 2000 (Invitrogen) according to the manufacturer's instructions. After 24 hours of incubation, cells were lysed for further studies.
Detect the Inhibition of miR-328 Expression by Antisense Oligonucleotides
Total RNA was extracted from cultured cells using Trizol according to the manufacturer's instructions. RNA purity was checked using A260/A280 readings. miR-328 was first reversed transcribed to miR-328 cDNA using the following procedure: 5 ng of RNA was reverse transcribed with miR-328 specific primer and MultiScribe reverse transcriptase kit (Applied Biosystems). To measure the miR-328 expression, quantitative real-time PCR was performed on an ABI 7500 real-time PCR machine (Applied Biosystems) with miR-328 specific probe according to manufacturer's instructions (Applied Biosystems). The inhibitory effect by antisense oligonucleotides was evaluated by measuring the level of miR-328 cDNA by quantitative real-time PCR. The expression level of miR-328 was normalized to that of a small non-coding nuclear RNA U6 as the internal control.

[2] = system: myopia-induced C57BL/6J mice; test: Example 5: validation of DNA 16mer and LNA 403 versus atropine in myopia-induced mice; format: in vivo; conditions: 1 μM
Procedure: (§1) The 21 days old C57BL/6J mice were purchased from the National Laboratory Animal Center, Taiwan. All animal experiments were in compliance with the ARVO Statement for the Use of Animals in Ophthalmic and Vision Research. The procedure of myopia induction is described briefly as the following: Right eyes of the 23 days old mice were covered for 4 weeks to induce myopia (i.e. nearsightedness) and the left eyes were uncovered. Then the right eyes of the myopia-induced mice were treated with 30 μL of saline (i.e. negative control group), 1% atropine (i.e. positive control group), DNA16mer or LNA403 at 1 μM on 30th, 37th and 44th day. Mice were sacrificed on 51th day and the eyes were collected. The isolated eyes were photographed under a dissection microscope and the axial lengths were measured using imageJ and a proprietary software for automatic measure. Myopia (nearsightedness) causes elongation of axial length, which is the major pathological change in myopia. The difference of axial length (i.e. delta axial length) between the covered right eye and the non-covered left eye of the same mouse indicates the severity of myopia. Statistical evaluation was done by using Mann-Whitney U test. Analysis with p-values <0.05 being considered significant.

Safety in animal studies = format: in vivo
[3] = system: myopia-induced C57BL/6J mice; test: Example 4: efficacy in myopia-induced mice, delta axial length; format: in vivo; conditions: for reduction of delta axial length compared to control group: 1 μM on day 30, 37 and 44, versus saline; for activity in treating myopia in mice (in words) / average delta axial length compared with control animals (in words) / Delta axial length, mm mean (SD): 1 μM; for activity in treating myopia in mice (in words): decrease of average axial length; for average delta axial length compared with control animals (in words): versus saline, Mann-Whitney U test; for Delta axial length, mm mean (SD): right (myopia) minus left eye, 30 μL to right eye on day 30, 37 and 44, eyes collected day 51
Procedure: as §1, with “covered” for “covered for 4 weeks”, “(i.e.” for “(i.e. negative”, “DNA16mer, DNA17mer, LNA403, LNA404,” for “1% atropine (i.e. positive control group), DNA16mer”, “LNA405,” for “LNA403”, “[…]” for “imageJ and a proprietary software for automatic measure.”, “p-values<0.05” for “p-values <0.05”

myopic pigmented rabbits = test: Example 7: DNA 16mer in myopic pigmented rabbits, delta axial length by A-scan; format: in vivo, rabbit; conditions: 20 μL to right eye every other day from day 35, AXL of day 61
Procedure: The procedure of myopia induction: The 3 days old pigmented rabbits were purchased from the DA-ZONG livestock farm, Taiwan. All animal experiments were in compliance with the ARVO Statement for the Use of Animals in Ophthalmic and Vision Research. On the age of 7 days, the right eye of the rabbit was covered for 8 weeks to induce myopia, and the left eye left uncovered. The axial lengths (AXL) of both eyes were measured by A-scan (Sonomed®, PACSCAN 300A, USA) once a week since day 21. We defined myopia as right eye AXL is longer than left eye AXL by 0.2 mm or longer on day 35. If a rabbit reached this defined criterion, the right eye of such a myopic rabbit was treated with […], of saline (i.e. control group) or DNA16mer (20 μL) at 10 μM or 50 uM every other day since day 35 till day 63. The final AXL measured on day 61 was used to obtain to calculate the difference between right AXL and left AXL (i.e. delta AXL). If there is no therapeutic effect, the delta AXL will be a positive value.

## 5′-AGGGCAGAGAGGGCCA-3′ (DNA, backbone not given here) [DNA 16mer, anti-sense miR-328 oligodeoxyribonucleotide]
[1]; 10 nM
  Delta axial length Mean: −0.056
[1]; 10 nM to right (myopia) eye
  right eye axial, mm Mean: 3.083 mm
[1]; 10 nM to right eye
  left eye axial, mm Mean: 3.139 mm
[1]; 100 nM
  Delta axial length Mean: −0.069
[1]; 100 nM to right (myopia) eye
  right eye axial, mm Mean: 3.023 mm
[1]; 100 nM to right eye
  left eye axial, mm Mean: 3.092 mm
[1]; 1 μM
  Delta axial length Mean: −0.058
[1]; 1 μM to right (myopia) eye
  right eye axial, mm Mean: 3.052 mm
[1]; 1 μM to right eye
  left eye axial, mm Mean: 3.110 mm
miR-328; 30 nM
  inhibitory effect on miR-328 expression: 39%
miR-328; 50 nM
  inhibitory effect on miR-328 expression: 35%
miR-328; 100 nM
  inhibitory effect on miR-328 expression: 49%
miR-328
  inhibition of miR-328 expression in vitro (in words): inhibited
[2]
  efficacy in reducing elongation of eyeball compared with 1% atropine (in words): more effective than 1% atropine
[2]; right eye covered 4 weeks, 30 μL on day 30, 37 and 44, day 51
  Mean of delta AXL: −0.055
Safety in animal studies
  safety in animal studies (in words): safe
[3]
  reduction of delta axial length compared to control group: 0.077 mm
  average delta axial length compared with control animals (in words): statistically significantly smaller
  Delta axial length, mm mean (SD): −0.059 (0.061)* mm
[3]; listed as 16mer
  activity in treating myopia in mice (in words): exhibited an activity for treating myopia
[3]; listed as DNA16mer
  activity in treating myopia in mice (in words): effective in treating myopia in mice
Myopic pigmented rabbits; 10 μM
  Delta axial length Mean: −0.234
Myopic pigmented rabbits; 50 μM
  Delta axial length Mean: −0.370

## 5′-AAGGGCAGAGAGGGCCA-3′ (DNA, backbone not given here) [DNA 17mer, anti-sense miR-328 oligodeoxyribonucleotide]
miR-328; 30 nM
  inhibitory effect on miR-328 expression: 43%
miR-328; 50 nM
  inhibitory effect on miR-328 expression: 41%
miR-328; 100 nM
  inhibitory effect on miR-328 expression: 48%
miR-328
  inhibition of miR-328 expression in vitro (in words): inhibited
Safety in animal studies
  safety in animal studies (in words): safe
[3]
  reduction of delta axial length compared to control group: 0.065 mm
  average delta axial length compared with control animals (in words): statistically significantly smaller
  Delta axial length, mm mean (SD): −0.047 (0.073)* mm
[3]; listed as 17mer
  activity in treating myopia in mice (in words): exhibited an activity for treating myopia
[3]; listed as DNA17mer
  activity in treating myopia in mice (in words): effective in treating myopia in mice
